Common to all, as to format: cell-based
Experiment [1] has as its system MCT4 expressing MDA-MB-231 cell line. Put plainly: Mitochondrial stress test (Seahorse XFe96). Conditions: 100, 50 and 30 μM, vs DMSO control. The method, then: (§1) The metabolic profile of compound 1 was evaluated via mitochondrial stress test (MST) and glycolytic stress test (GST) on MCT4 expressing MDA-MB-231 and MCT1 expressing WiDr cell lines using Seahorse XFe96® analyzer (FIGS. 1A and 1B). 20,000 cells/well were seeded in 96-well microplates. MST was performed according to the manufacturer's protocol. The mitochondrial parameters: maximal respiration, ATP production, proton leak and spare respiratory capacity were calculated using wave software. DMSO was used as the negative control. A concentration study was performed in MDA-MB-231 cell line using compound 1 at 100, 50 and 30 μM concentrations. […] GST was also performed according to the manufacturer's protocol. The glycolytic parameters: glycolysis, glycolytic capacity, and glycolytic reserve were calculated using wave software, with DMSO as a negative control. In this case also, a concentration study was carried out at 100, 50 and 30 μM in MDA-MB-231 cell line.

The subject of experiment [2] is MCT1 expressing WiDr cell line. Put plainly: Mitochondrial stress test (Seahorse XFe96). Conditions: vs DMSO control. The method, then:
as §1

Experiment [3] deals with MCT4 expressing MDA-MB-231 cell line. The experiment is described as follows: Glycolysis stress test (Seahorse XFe96). Conditions: 100, 50 and 30 μM, vs DMSO control. The method, then:
as §1

For experiment [4], the system named is 4T1 breast cancer cell line. The experiment is described as follows: Inhibition of pyruvate-driven respiration in permeabilized cells (Seahorse XFe96). Conditions: varying concentrations.

Turning to `N#C/C(=C\c1ccc(N(c2ccc(F)cc2)c2ccc(F)cc2)cc1)C(=O)O` [Compound 1, (E)-3-(4-(bis(4-fluorophenyl)amino)phenyl)-2-cyanoacrylic Acid], in experiment [1], the ATP production entry is reported as “significantly decreased”, the maximal respiration entry is given as “significantly decreased” and the spare respiratory capacity result was “significantly decreased”. Further, in experiment [2], the ATP production result is “significantly decreased”, the maximal respiration result was “significantly decreased” and the spare respiratory capacity result is on record as “significantly decreased”. For the same compound, in experiment [3], the glycolytic capacity result is on record as “significantly decreased” and the glycolytic reserve result is given as “significantly decreased”.

On to `COc1cc(N(c2ccc(F)cc2)c2ccc(F)cc2)ccc1/C=C(\C#N)C(=O)O` [Compound 2, (E)-3-(4-(bis(4-fluorophenyl)amino)-2-methoxyphenyl)-2-cyanoacrylic Acid], for which the “oxygen consumption rate (OCR) after compound injection” value in experiment [4] (intact 4T1 cells, before rPFO) is “Acute decreases in OCR were observed”. For the same compound, in experiment [4] (rPFO-permeabilized 4T1 cells, FCCP-stimulated pyruvate/malate/DCA), the “inhibition of pyruvate-driven respiration” value is listed as “inhibited pyruvate-driven respiration in permeabilized cells in a dose dependent fashion”.

The values are drawn from patent US20210114975A1, “THERAPEUTIC COMPOUND AND METHODS” (Regents of the University of Minnesota, priority 2019, published 2021).
